One substance from US20240043473A1, “NOOTROPIC PEPTIDES FOR TREATING LYSOSOMAL STORAGE DISEASES” (Phoenix Nest Inc., priority 2021, published 2024) can be followed below.

Entries after “also recorded” stand apart in the source; their conditions may differ. No end group written: not given here.

Series [1] concerns iPSC-derived cortical neurons from MPS IIIA and MPS IIIC patients. Briefly: Synaptic protein markers and BDNF in iPSC-derived cultured cortical neurons (immunocytochemistry). It counts as cell-based, human. To be noted: 10 μM in culture; MPS IIIA and MPS IIIC patient neurons. The text has this:
Generation of iPSC lines MPS III patient fibroblast lines were obtained from the Coriell Institute for Medical Research (NJ, USA), or from the hospitals were the patients were diagnosed/followed with the informed consent of patient's families. The fibroblasts were propagated in Dulbecco's Modified Eagle Medium (DMEM, ThermoFisher) with 10% fetal bovine serum (FBS) and 1% Antibiotic-Antimycotic (15240062, ThermoFisher) and tested for mycoplasma. The cells were further reprogrammed into iPSCs at the CHUSJ iPSC Platform using a non-integrating CytoTune-Sendai viral reprograming kit (A16517, Thermo Fisher Scientific, MA, USA) according to the manufacture's protocol. Two colonies for each iPSC line were used for further proliferation, iPSCs were expanded and maintained on six-well plates coated with Matrigel mTeSR™ Plus medium at 37° C., in 5% CO2/5% O2 atmosphere following the medium manufacturer's protocol. […]
Induction of cortical NPC and cortical neurons iPSCs were differentiated into cortical forebrain committed neural precursor cells (NPCs) by dual SMAD inhibition by passaging iPSCs over to poly-L-ornithine (PO)/laminin coated dishes. […] After induction for 3 weeks the cells were analyzed by ICH for the presence of neuronal markers PAX6, and TUBB3, confirmation of disease-specific enzymatic deficiencies and lysosomal storage phenotype (increased size of LAMP2+ puncta by ICH). […]

For the next series, the system named is β-hexosaminidase. Description: Total β-hexosaminidase activity in brain homogenates. In kind it is in vivo, mouse. To be noted: chronic daily 50 μg/kg BW, vs saline. The protocol:
The activity of β-hexosaminidase was measured by combining 2.5 μl of 10× diluted homogenate ([…] of protein) with 15 μl of 0.1 M sodium acetate buffer (pH 4.2), and 12.5 μl of 3 mM 4-methylumbelliferyl N-acetyl-β-D-glucosaminide (Sigma-Aldrich) followed by incubation for 30 min at 37° C. The reaction was stopped 0.4 M glycine buffer (pH 10.4) and fluorescence was measured as above.
Starting from 3 weeks of age, WT C57B16 and homozygous Hgsnat^P304L male and female mice were randomly divided in treatment and control groups (6-13 mice/sex/genotype/treatment; see Table I). The control group was daily administered with saline (5 μL to each nostril), while for the treatment group, saline was supplemented with 125 µg of AVP6/mL, which would result in a dose of approximately 50 μg/kg BW/day. The peptide formulation was prepared once, aliquoted and kept frozen at −80° C. until use. At 4 months, all mice were studied by EPM, OF, YM and NOR behavioral tests. Administration of the drug or saline was continued through the days on which the assays were conducted. Then approximately at 5 months 4-5 mice in each group were sacrificed. Their blood plasma was collected, and their tissues were either snap-frozen or fixed and cryopreserved to analyze CNS pathology as described above. […] When such signs were detected, the mice were studied by ERG and sacrificed within 1-2 days. […]

The nature of series [2]: Preliminary studies of activity and stability of the acetylated peptide.
In series [3] the test system is Hgsnat^P304L MPS IIIC mice. Description: Open Field test. It counts as in vivo, mouse. To be noted: 6-month-old Hgsnat^P311L (P304L) mice.
The mark [4] stands for this setting: single intranasal 10 μg/kg (low dose).
The mark [5] stands for this setting: single intranasal 500 μg/kg (high dose).

Take “AVP6: N-terminally acetylated Semax, a nootropic peptide having the amino acid sequence of MEHFPGP (SEQ ID NO:1) (Ac-MEHFPGP)”: in series [1], the “levels of BDNF+, VGLUT1+ and PSD-95+ puncta” value is “significantly increased”; the “levels of VGLUT1+, PSD-95+, SYN1+ and BDNF+ puncta” value is “rescues reduced levels of synaptic markers; also recorded: significantly increased”. In addition, in the series on β-hexosaminidase (Hgsnat^P304L mice at 5 months), the “total β-hexosaminidase activity in total brain homogenates” value is “remained similar”. Besides, the “total β-hexosaminidase activity in brain homogenates” value in the series with β-hexosaminidase (Hgsnat^P304L mice at terminal timepoint) is “trend for reduction”. The “effect of N-terminal acetylation on activity and stability of the peptide” value in series [2] was “increase the activity and stability of the peptide”. In series [3] (setting [4]), the “hyperactivity, Open Field” value is reported as “failed to rescue hyperactivity or reduced anxiety; also recorded: do not rescue hyperactivity” and the “reduced anxiety, Open Field” value was “failed to rescue hyperactivity or reduced anxiety”. For the same substance, in series [3] (setting [5]), the “hyperactivity, Open Field” value was “failed to rescue hyperactivity or reduced anxiety; also recorded: do not rescue hyperactivity” and the “reduced anxiety, Open Field” value is recorded as “failed to rescue hyperactivity or reduced anxiety”.
